Data on 12 compounds can be found in paper PMC12520770, “Synthesis of a novel coumarin via the Mannich reaction: in vitro and in silico evaluation of anti-cancer, antimicrobial and antioxidant activities” (Royal Society Open Science, 2025).

Assay [1] relates to human cervical cancer cells HeLa. In words: SRB cytotoxicity assay, HeLa. The class given is cell-based. To be noted: 48 h. As for the experimental part: (§1) Human lung cancer cell line NCI-H460 (HTB-177), human breast cancer cell line MCF-7 (HTB-2), human cervical cancer cells HeLa (CCL-2), human liver cancer cell line HepG2 (HB-8065) and normal kidney epithelial cell line (LLCPK1) were purchased from the American Type Culture Collection (Manassas, Rockville). Cells were cultured at 37°C and 5% CO2 in Eagle’s minimal essential medium supplemented with 10% (v/v) FBS (Sigma), 2 mM L-glutamine (Sigma), 20 mM HEPES (Sigma), 0.025 μg ml^−1 amphotericin B (Sigma), 100 IU ml^−1 penicillin G (Sigma) and 100 μg ml^−1 streptomycin (Sigma). Cells used in this study were between passages 4 and 20.
(§2) The experiment was conducted as previously outlined, with certain variations. Cells were seeded at a density of 10 000 cells per well (MCF-7, Hep G2, HeLa) or 7500 cells per well (NCI-H460) in 96-well plates, grown for 24 h, and subsequently treated with compounds at varying doses for 48 h. Treated cells were fixed with cold 50% (w/v) trichloroacetic acid (Merck) solution for 1−3 h, subsequently washed and stained with 0.2% (w/v) SRB (Sigma) for 20 min. Following five washes with 1% acetic acid (Merck), the protein-bound dye was solubilized in a 10 mM Tris base solution (Promega). Optical density values were measured using a 96-well microtiter plate reader (Synergy HT, Biotek Instruments) at wavelengths of 492 and 620 nm. The growth inhibition percentage (Inh %) was determined using the formula: Inh % = (1 − [ODt/ODc]) × 100, where ODt and ODc represent the optical density values of the test and control samples, respectively. Camptothecin served as the positive control.
Background: In SRB staining, fixed cells bind dye roughly in proportion to their protein.

Assay [2] concerns human liver cancer cell line HepG2. The assay can be described thus: SRB cytotoxicity assay, HepG2. It counts as cell-based. To be noted: 48 h. How it is done: as §1, §2
The test system of assay [3] is human breast cancer cell line MCF-7. In words: SRB cytotoxicity assay, MCF-7. It counts as cell-based. The conditions noted are these: MCF7, MCF-7, SRB assay, 48 h. As for the experimental part: as §1, §2
Assay [4] in a line: DPPH radical scavenging assay. It counts as biochemical. The conditions noted are these: read-out: SC50 (the source's name). How it is done:
The 1,1-diphenyl−2-picrylhydrazyl (DPPH) assay is a technique employed to assess the antioxidant potential of a chemical by measuring its efficacy in scavenging free radicals. DPPH produces stable free radicals in methanol. Upon exposure to an antioxidant, DPPH experiences a colour transformation from purple to yellow, which is quantified using an ELISA reader at a wavelength of 517 nm. The experiment is performed in a 96-well plate, where a 150 µM DPPH solution in 80% methanol is combined with test samples at different concentrations. The DPPH radical scavenging activity percentage is computed using the formula SC% = 1 − [ODt/ODc] × 100 (%), where SC50 (radical scavenging concentration of 50%) is the sample concentration necessary to eliminate 50% of DPPH radicals, as ascertained from the standard calibration curve. Trolox serves as a positive control in the experiment.

The next assay has as its system Bacillus subtilis. The assay can be described thus: Broth microdilution MIC, B. subtilis. It counts as cell-based. How it is done:
The three bacteria—Escherichia coli (E. coli), methicillin-resistant Staphylococcus aureus (MRSA) and Bacillus subtilis (B. subtilis), and two fungi: Candida albicans (C. albicans) and Trichophyton mentagrophytes (T. mentagrophytes) were used in this study. The clinical isolates were obtained in 2019 from the Faculty of Biology and Biotechnology, University of Science, Vietnam National University.
All coumarin derivatives were evaluated for in vitro antibacterial and antifungal activities, and the minimum inhibitory concentration (MIC) was ascertained in µM using the broth microdilution method. The test organisms were cultivated and cultured for 48 h at 37°C. The 2-day-old bacterial cultures were emulsified in a small volume of Muller Hinton broth (MHB) and cultured at 37°C overnight to reach the logarithmic growth phase. The turbidity of each inoculum was subsequently corrected to McFarland standard no. 0.5 by the additional incorporation of MHB, resulting in an inoculum concentration of 1.5 × 10^8 CFU ml^−1. One hundred microlitres of MHB were dispensed into all wells of the 96-well microtiter plates, excluding the first column A. Subsequently, 200 µl of the working solution for each examined chemical was allocated to column A of each plate. […] The MIC was determined as the minimal concentration of substances that inhibited the colour change.

The subject of assay [5] is normal kidney epithelial cell line (LLCPK1). In words: SRB cytotoxicity assay, normal cells LLCPK1. It counts as cell-based. The conditions noted are these: Sus scrofa, LLC-PK1. As for the experimental part:
as §1, §2

SMILES strings stand for the structures. ≈ marks a conversion by molar mass, not a printed value.

In the case of `O=c1oc2ccccc2c(O)c1CNc1ccc(S(=O)(=O)O)cc1` [compound 2i, 4-{[(4-Hydroxy-2-oxo−2H-chromen-3-yl)methyl]amino}benzenesulfonic acid], the results for the concentration for half-maximal inhibition (IC50) in assay [1], in assay [2] and in assay [3] were 80.2 µM, 75.2 µM and 85.2 µM, respectively. Besides, in assay [4], the EC50 came out at 7.36 ± 0.18 µM.
On to `O=c1oc2ccccc2c(O)c1CNC1CCCC1` [compound 2f, 3-[(Cyclopentylamino)methyl]-4-hydroxy-2H-chromen-2-one], for which, in the assay with Bacillus subtilis, the MIC (as a rule, the lowest concentration found to suppress growth) was 75 µM (≈ 19.4 µg/mL). Further, the half-maximal inhibitory concentration (IC50) (as a rule, the concentration that gives 50% inhibition) in assay [1] came to 57.3 µM; in assay [2], 49.7 µM; in assay [3] it was 54.2 µM. Moreover, the EC50 in assay [4] is 45.9 µM.
For the compound `CCCNCc1c(O)c2ccccc2oc1=O` [2h, 4-Hydroxy-3-[(propylamino)methyl]-2H-chromen-2-one], the results for the IC50 in assay [1], in assay [2] and in assay [3] were 73.2 µM, 62.5 µM and 40.1 µM, respectively. Also, the EC50 in assay [4] was found to be 65.3 µM.
On to `O=c1oc2ccccc2c(O)c1Cn1ccnc1` [2e, 3-[(1H-imidazol-1-yl)methyl]-4-hydroxy-2H-chromen-2-one], for which the IC50 came to 34.2 µM in assay [1], 34.2 µM in assay [2] and 30.4 µM in assay [3]. The EC50 in assay [4] stood at 80.9 µM.
As for `CC(C)NCc1c(O)c2ccccc2oc1=O` [compound 2b, 4-Hydroxy-3-[(isopropylamino)methyl]-2H-chromen-2-one], the IC50 in assay [5] came out at 97.3 µM; in assay [1], 5.23 ± 0.12 µM; in assay [2] it was 73.2 µM; in assay [3] it was 35.4 µM. The EC50 in assay [4] is 31.3 µM.
Turning to `CC[C@@]1(O)C(=O)OCc2c1cc1n(c2=O)Cc2cc3ccccc3nc2-1` [camptothecin, reference compound], the figures for the IC50 in assay [1], in assay [2] and in assay [3] were 2.38 ± 0.102 µM, 4.28 ± 0.201 µM and 3.76 ± 0.15 µM, respectively.
As to `O=c1oc2ccccc2c(O)c1CN1CCOCC1` [2g, 4-Hydroxy-3-(morpholinomethyl)-2H-chromen-2-one], the values for the IC50 in assay [1], in assay [2] and in assay [3] were 31.5 µM, 50.2 µM and 42.7 µM, respectively. Further, in assay [4], the EC50 was 72.2 µM.
Regarding `Cc1c(C)c2c(c(C)c1O)CCC(C)(C(=O)O)O2` (stereo not shown) [Trolox, reference compound], the EC50 in assay [4] is 6.12 ± 0.15 µM.
Take `O=c1oc2ccccc2c(O)c1CNc1ccccc1` [compound 2j, 4-Hydroxy-3-[(phenylamino)methyl]-2H-chromen-2-one]: the IC50 was determined as 84.7 µM in assay [1], 68.1 µM in assay [2] and 95.5 µM in assay [3]. The EC50 in assay [4] is 53.3 µM.
For `CNCc1c(O)c2ccccc2oc1=O` [compound 2a, 4-Hydroxy-3-[(methylamino)methyl]-2H-chromen-2-one], the concentration for half-maximal inhibition (IC50) was determined as 94.6 µM in assay [5], 39.3 µM in assay [1], 8.57 ± 0.42 µM in assay [2] and 52 µM in assay [3]. For the same compound, the MIC against Bacillus subtilis was 25 µM (≈ 5.13 µg/mL). Also, the EC50 in assay [4] came out at 62.5 µM.
For the compound `O=C(O)c1ccc(NCc2c(O)c3ccccc3oc2=O)cc1` [2c, 4-{[(4-hydroxy-2-oxo-2H-chromen-3-yl)methyl]amino}benzoic acid], the IC50 in assay [1] was 54.9 µM; in assay [2] it was 56.5 µM; in assay [3], 61.4 µM. Moreover, the EC50 in assay [4] turned out to be 59.7 µM.
As for `N#Cc1ccc(NCc2c(O)c3ccccc3oc2=O)cc1` [compound 2d, 4-{[(4-Hydroxy-2-oxo-2H−chromen-3-yl)methyl]amino}benzonitrile], the IC50 in assay [5] is 94.8 µM; in assay [1], 34.1 µM; in assay [2] it was 70.2 µM; in assay [3], 2.54 ± 0.12 µM. In assay [4], the EC50 came to 35.8 µM.
